Assay results from the Bradley open melting point set (2014).
Where “and” joins values, the source holds several entries; their conditions need not be identical. Equal entries are not always repeated.

With `O=C(O)c1ccc([N+](=O)[O-])cc1` [p-nitrobenzoic_acid] the melting point was 241 °C.
`O=[N+]([O-])c1ccc(O)cc1` [p-nitrophenol] showed a melting point of 115 °C.
`O=C(O)c1ccc(-c2ccccc2)cc1` [p-phenylbenzoic_acid] gave a melting point of 227 °C.
With `c1ccc(-c2ccc(-c3ccccc3)cc2)cc1` [p-terphenyl] [listing 1 of 2 here] the melting point was 213 °C.
In the case of `c1ccc(-c2ccc(-c3ccccc3)cc2)cc1` [p-terphenyl] [listing 2 of 2 here], the melting point is reported as 214 °C.
Work on `Cc1ccc(C=O)cc1` [p-tolualdehyde] yielded a melting point of -6 °C.
Compound `Cc1ccc(S(=O)(=O)O)cc1` [p-toluenesulfonic acid] has a melting point of 104 °C.
`Cc1ccc(S(=O)(=O)Cl)cc1` [p-toluenesulfonyl chloride] gave a melting point of 69 °C.
With `Cc1ccc(S(=O)(=O)CC(=O)O)cc1` [p-toluenesulfonylacetic acid] the melting point was 118 °C.
With `[C-]#[N+]CS(=O)(=O)c1ccc(C)cc1` [p-toluenesulfonylmethyl isocyanide] [listing 1 of 2 here] the melting point was 112 °C.
`[C-]#[N+]CS(=O)(=O)c1ccc(C)cc1` [p-toluenesulfonylmethyl isocyanide] [listing 2 of 2 here] showed a melting point of 112 °C.
`Cc1ccc(C(=O)Cl)cc1` [p-toluoyl chloride] showed a melting point of -2 °C.
`CC(C)(S)[C@@H](N)C(=O)O` [penicillamine] gave a melting point of 204 °C.
`ClC(Cl)C(Cl)(Cl)Cl` [pentachloroethane] showed a melting point of -29 °C.
`O=[N+]([O-])c1c(Cl)c(Cl)c(Cl)c(Cl)c1Cl` [pentachloronitrobenzene] showed a melting point of 144 °C.
For `O=C1CCCCCCCCCCCCCCO1` [pentadecanolide], the melting point was 35 °C.
In the case of `OCC(CO)(CO)CO` [pentaerythritol], the melting point is reported as 262 °C.
Work on `ClCC(CCl)(CCl)CCl` [pentaerythrityl tetrachloride] yielded a melting point of 95 °C.
Compound `CCCCC=O` [pentanal] has a melting point of -91 °C.
For `CCCCC(=O)O` [pentanoic_acid], the melting point was -34 °C.
`c1ccc(C2=C(c3ccccc3)C(c3ccccc3)C(c3ccccc3)=C2c2ccccc2)cc1` [pentaphenylcyclopentadiene] showed a melting point of 256 °C.
`C/C(C)=CCN2CC[C@@]1(C)c3cc(O)ccc3C[C@@H]2[C@@H]1C` [pentazocin] showed a melting point of 146 °C.
With `FC(F)(F)C(F)(F)C(F)(F)C(F)(F)C(F)(F)C(F)(F)F` [perfluorohexanes] the melting point was -90 °C.
`[O-][I+3]([O-])([O-])O` [periodic acid] gave a melting point of 128 °C.
Work on `c1ccc2c(c1)ccc1ccccc12` [phenanthracene] yielded a melting point of 99 °C.
In the case of `c1ccc2c(c1)ccc1ccccc12` [phenanthrene] [listing 1 of 2 here], the melting point is reported as 99.2 °C and 101 °C and 99 °C.
For `c1ccc2c(c1)ccc1ccccc12` [phenanthrene] [listing 2 of 2 here], the melting point was 100 °C.
Work on `Nc1ccc(N=Nc2ccccc2)c(N)n1` [phenazopyridine] yielded a melting point of 139 °C.
With `CCN(CC)CCSC(=O)N(c1ccccc1)c1ccccc1` [phencarbamide] the melting point was 48 °C.
Compound `CCC1(c2ccccc2)C(=O)NC(=O)NC1=O` [phenobarbital] [listing 1 of 2 here] has a melting point of 175 °C.
For `CCC1(c2ccccc2)C(=O)NC(=O)NC1=O` [phenobarbital] [listing 2 of 2 here], the melting point was 174 °C and 176 °C.
With `CCOc1ccc(NC(=O)CN)cc1` [phenocoll] the melting point was 101 °C.
`Oc1ccccc1` [phenol] showed a melting point of 41 °C.
In the case of `c1ccc2c(c1)Oc1ccccc1S2` [phenoxathiin], the melting point is reported as 57 °C.
`O=C(O)COc1ccccc1` [phenoxyacetic acid] showed a melting point of 100 °C.
`ON=C(c1ccccc1)c1ccccn1` [phenyl 2-pyridyl ketoxime] gave a melting point of 155 °C.
With `O=CCc1ccccc1` [phenylacetaldehyde] the melting point was -10 °C.
With `O=C1NC(=O)C(c2ccccc2)(c2ccccc2)N1` [phenytoin] the melting point was 296 °C and 295 °C.
Compound `O=C1OC(=O)c2ccccc21` [phthalic anhydride] has a melting point of 132 °C.
With `N#Cc1ccccc1C#N` [phthalonitrile] the melting point was 140 °C.
Compound `O=c1[nH]c2ccccc2n1C1CCN(CCCC(c2ccc(F)cc2)c2ccc(F)cc2)CC1` [pimozide] has a melting point of 216 °C.
For `CC(C)NCC(O)COc1cccc2[nH]ccc12` (configuration not stated) [pindolol], the melting point was 170 °C.
For `C1CNCCN1` [piperazine, anhydrous], the melting point was 110 °C.
Work on `CN1C(C(=O)Nc2ccccn2)=C(O)c2ccccc2S1(=O)=O` [piroxicam] [listing 1 of 2 here] yielded a melting point of 198 °C.
For `CN1C(C(=O)Nc2ccccn2)=C(O)c2ccccc2S1(=O)=O` [piroxicam] [listing 2 of 2 here], the melting point was 200 °C and 199 °C.
For `O=C(CO)[C@@]3(O)CC[C@H]2[C@@H]4CC\C1=C\C(=O)\C=C/[C@]1(C)[C@H]4C(=O)C[C@@]23C` [prednisone], the melting point was 234 °C (2×) and 237 °C.
Work on `OC(CCN1CCCCC1)(c1ccccc1)c1ccccc1` [pridinol] yielded a melting point of 120 °C.
`CCC1(c2ccccc2)C(=O)NCNC1=O` [primidone] showed a melting point of 282 °C.
`CCC1(C(C)C)C(=O)NC(=O)NC1=O` [probarbital] showed a melting point of 203 °C.
Compound `CCCN(CCC)S(=O)(=O)c1ccc(C(=O)O)cc1` [probenecid] has a melting point of 199 °C.
For `CCCN(CC1CC1)c1c([N+](=O)[O-])cc(C(F)(F)F)cc1[N+](=O)[O-]` [profluralin], the melting point was 32.5 °C.
With `O=C4\C=C2/[C@]([C@H]1CC[C@@]3([C@@H](C(=O)C)CC[C@H]3[C@@H]1CC2)C)(C)CC4` [progesterone] the melting point was 131 °C and 130 °C.
Work on `C=C(Br)CC1(C(C)C)C(=O)NC(=O)NC1=O` [propallylonal] yielded a melting point of 177 °C.
With `CCC` [propane] the melting point was -188 °C.
For `CCC(=O)OC(=O)CC` [propionic anhydride], the melting point was -44 °C.
For `CCC#N` [propionitrile], the melting point was -93 °C and -92 °C.
With `CC(C)NCC(O)COc1cccc2ccccc12` (configuration not stated) [propranolol] the melting point was 129 °C.
For `CC(CP(=O)(O)O)P(=O)(O)O` (configuration not stated) [propylenediphosphonic acid], the melting point was 178 °C.
Compound `ON=Cc1ccccn1` [pyridine-2-carboxaldoxime] has a melting point of 111 °C.
`NC(=S)c1ccccn1` [pyridine-2-thiocarboxamide] showed a melting point of 123 °C.
`ON=Cc1ccncc1` [pyridine-4-carboxaldoxime] gave a melting point of 132 °C.
In the case of `c1cncnc1` [pyrimidine], the melting point is reported as 21 °C.
For `CC(=O)C(=O)O` [pyruvic acid], the melting point was 11.5 °C (2×) and 12 °C (2×) and 13.8 °C.
In the case of `C=C[C@H]1C[N@@]2CC[C@H]1C[C@@H]2[C@@H](O)c1ccnc2ccc(OC)cc12` [quinidine] [listing 1 of 2 here], the melting point is reported as 174 °C.
With `C=C[C@H]1C[N@@]2CC[C@H]1C[C@@H]2[C@@H](O)c1ccnc2ccc(OC)cc12` [quinidine] [listing 2 of 2 here] the melting point was 170 °C.
In the case of `C=C[C@H]1CN2CC[C@H]1C[C@H]2[C@H](O)c1ccnc2ccc(OC)cc12` [quinine], the melting point is reported as 176 °C and 174 °C.
For `OB(O)c1cccc2ncccc12` [quinoline-5-boronic acid], the melting point was 146 °C.
`c1ccc2nccnc2c1` [quinoxaline] showed a melting point of 30 °C.
With `c1cc(OCC2CO2)cc(OCC2CO2)c1` (configuration not stated) [resorcinol diglycidyl ether] the melting point was 34 °C.
`O=Cc1ccccc1O` [salicylaldehyde] gave a melting point of -7 °C.
Work on `O/N=C/c1ccccc1O` [salicylaldoxime] yielded a melting point of 57 °C.
For `NC(=O)c1ccccc1O` [salicylamide] [listing 1 of 2 here], the melting point was 142 °C.
For `NC(=O)c1ccccc1O` [salicylamide] [listing 2 of 2 here], the melting point was 140 °C.
Compound `O=C(O)c1ccccc1O` [salicylic acid] has a melting point of 157 °C.
In the case of `Oc1ccccc1C=Nc1ccccc1` [salicylideneaniline], the melting point is reported as 50 °C.
With `O=C(Oc1ccccc1C(=O)O)c1ccccc1O` [salicylsalicylic acid] the melting point was 135 °C.
`CCC(C)c1ccccc1` (configuration not stated) [sec-butylbenzene] gave a melting point of -75 °C.
Compound `Clc1ccc(C(Cn2ccnc2)OCc2csc3c(Cl)cccc23)c(Cl)c1` (configuration not stated) [sertaconazole] has a melting point of 146 °C.
For `COc1cc(/C=C/C(=O)O)cc(OC)c1O` [sinapic acid], the melting point was 195 °C.
Work on `NCCCCNCCCN` [spermidine] yielded a melting point of 24 °C.
With `O=C1C[C@@H]2OCC=C3CN4CC[C@]56c7ccccc7N1[C@H]5[C@H]2[C@H]3C[C@H]46` [strychnine] the melting point was 280 °C.
`OCC(O)c1ccccc1` (configuration not stated) [styrene glycol] showed a melting point of 68 °C.
Work on `C=Cc1ccccc1` [styrene] yielded a melting point of -31 °C.
`O=C(O)CCCCCCC(=O)O` [suberic_acid] gave a melting point of 144 °C.
Work on `O=C1CCC(=O)O1` [succinic anhydride] yielded a melting point of 120 °C.
Compound `OC[C@H]1O[C@@](CO)(O[C@H]2O[C@H](CO)[C@@H](O)[C@H](O)[C@H]2O)[C@@H](O)[C@@H]1O` [sucrose] has a melting point of 188 °C.
Work on `CC(=O)NS(=O)(=O)c1ccc(N)cc1` [sulfacetamide] yielded a melting point of 183 °C.
With `Nc1ccc(S(=O)(=O)Nc2ncccn2)cc1` [sulfadiazine] the melting point was 252 °C and 256 °C and 254 °C.
In the case of `COc1cc(NS(=O)(=O)c2ccc(N)cc2)nc(OC)n1` [sulfadimethoxine], the melting point is reported as 204 °C.
`Cc1ccnc(NS(=O)(=O)c2ccc(N)cc2)n1` [sulfamerazine] showed a melting point of 236 °C.
`Cc1cc(C)nc(NS(=O)(=O)c2ccc(N)cc2)n1` [sulfamethazine] gave a melting point of 176 °C.
For `Cc1noc(NS(=O)(=O)c2ccc(N)cc2)c1C` [sulfisoxazole], the melting point was 191 °C and 194 °C.
With `CCN1CCCC1CNC(=O)c1cc(S(N)(=O)=O)ccc1OC` (configuration not stated) [sulpiride] the melting point was 178 °C.
`COc1cc(C(=O)O)cc(OC)c1O` [syringic acid] showed a melting point of 207 °C.
For `CCC(=C(c1ccccc1)c1ccc(OCCN(C)C)cc1)c1ccccc1` [tamoxifen], the melting point was 96 °C.
`O=C(O)C(O)C(O)C(=O)O` (configuration not stated) [tartaric acid] gave a melting point of 147 °C.
For `CN1C(C(=O)Nc2ccccn2)=C(O)c2sccc2S1(=O)=O` [tenoxicam], the melting point was 211 °C.
Compound `CCNc1nc(NC(C)(C)C)nc(SC)n1` [terbutryn] has a melting point of 105 °C.
For `CCNc1nc(NC(C)(C)C)nc(SC)n1` [terbutryne], the melting point was 104 °C.
`O=Cc1ccc(C=O)cc1` [terephthalaldehyde] gave a melting point of 116 °C.
`O=Cc1ccc(C=O)cc1` [terephthaldicarboxaldehyde] gave a melting point of 116 °C.
In the case of `CC(C)(C)OC(=O)C(C(=O)Cc1ccccc1)c1ccccc1` (configuration not stated) [tert-butyl 3-oxo-2,4-diphenylbutanoate], the melting point is reported as 83 °C.
Work on `CCOC(C)(C)C` [tert-butyl ethyl ether] yielded a melting point of -94 °C.
`COC(C)(C)C` [tert-butyl methyl ether] gave a melting point of -109 °C.
`CC12CCC(=O)C=C1CCC1C2CCC2(C)C(O)CCC12` (configuration not stated) [testosterone] showed a melting point of 153 °C.
`CCCCCCCCCCCCCC` [tetradecane] showed a melting point of 6 °C.
`CCCCCCCCCCCCCC(=O)O` [tetradecanoic acid] gave a melting point of 55 °C.
